Test results published in patent publication US7192781B2 (Pharmion Corporation, priority 2004, dated 2007).

Legend:
[1] = Stability of 5-azacytidine in whole blood; conditions: for Mean [5-aza] / % of Time 0: whole blood;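 on all read-outs here: drug level determined in plasma separated from whole blood, extracted with acetonitrile plus internal standard, then quantified by LC/MS/MS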
[2] = Stability of 5-azacytidine stored as an acetonitrile residue at minus 70° C.; conditions: for % of Time 0 / Mean [5-aza]: acetonitrile residue at minus 70° C.
[3] = Stability of 5-azacytidine stored in acetonitrile/plasma mixtures at different temperatures; conditions: for % of Fresh Prep / Mean [5-aza]: acetonitrile/plasma mixture
[4] = [5-aza] 15 ng/mL, Room Temp, 15 mins
[5] = [5-aza] 15 ng/mL, Room Temp, 30 mins
[6] = [5-aza] 15 ng/mL, Room Temp, 45 mins
[7] = [5-aza] 200 ng/mL, Ice, 15 mins
[8] = [5-aza] 200 ng/mL, Ice, 30 mins
[9] = [5-aza] 200 ng/mL, Ice, 45 mins
[10] = [5-aza] 200 ng/mL, Ice, 60 mins
[11] = [5-aza] 200 ng/mL, Room Temp, 15 mins
[12] = [5-aza] 200 ng/mL, Room Temp, 30 mins
[13] = [5-aza] 200 ng/mL, Room Temp, 45 mins
[14] = [5-aza] 200 ng/mL, Room Temp, 60 mins
[15] = [5-aza] 30 ng/mL, Freeze-thaw (minus 70° C. for 4 days followed by RT for 5.5 hours)
[16] = [5-aza] 400 ng/mL, Freeze-thaw (minus 70° C. for 4 days followed by RT for 5.5 hours)

With `Nc1ncn([C@@H]2O[C@H](CO)[C@@H](O)[C@H]2O)c(=O)n1` [5-azacytidine, 4-amino-1-β-D-ribofuranosyl-1,3,5-triazin-2(1H)-one] the “degradation in whole blood” value ([1]; room temperature) was “rapidly degrades”, the “degradation in whole blood” value ([1]; stored on ice, compared with room temperature) was “slightly reduced rate” and the “Mean [5-aza]” value ([1]; [5-aza] 15 ng/mL, Ice, 0 mins) was 16.1 (N = 5) ng/mL. The “% of Time 0” value ([1]; [5-aza] 15 ng/mL, Ice, 15 mins) was 80.7%, the “Mean [5-aza]” value ([1]; [5-aza] 15 ng/mL, Ice, 15 mins) was 13.0 (N = 4) ng/mL and the “% of Time 0” value ([1]; [5-aza] 15 ng/mL, Ice, 30 mins) was 77.6%. The “Mean [5-aza]” value ([1]; [5-aza] 15 ng/mL, Ice, 30 mins) was 12.5 (N = 3) ng/mL, the “% of Time 0” value ([1]; [5-aza] 15 ng/mL, Ice, 45 mins) was 70.8% and the “Mean [5-aza]” value ([1]; [5-aza] 15 ng/mL, Ice, 45 mins) was 11.4 (N = 4) ng/mL. For the same compound, the “% of Time 0” value ([1]; [5-aza] 15 ng/mL, Ice, 60 mins) was 71.4%, the “Mean [5-aza]” value ([1]; [5-aza] 15 ng/mL, Ice, 60 mins) was 11.5 (N = 5) ng/mL and the “Mean [5-aza]” value ([1]; [5-aza] 15 ng/mL, Room Temp, 0 mins) was 16.1 (N = 5) ng/mL. The “% of Time 0” value [1, 4] was 82.6%, the “Mean [5-aza]” value [1, 4] was 13.3 (N = 5) ng/mL and the “% of Time 0” value [1, 5] was 71.4%. The “Mean [5-aza]” value [1, 5] was 11.5 (N = 5) ng/mL, the “% of Time 0” value [1, 6] was 64.0% and the “Mean [5-aza]” value [1, 6] was 10.3 (N = 2) ng/mL. The “Mean [5-aza]” value ([1]; [5-aza] 200 ng/mL, Ice, 0 mins) was 152.0 (N = 5) ng/mL, the “% of Time 0” value [1, 7] was 79.6% and the “Mean [5-aza]” value [1, 7] was 121.0 (N = 5) ng/mL. The “% of Time 0” value [1, 8] was 73.0%, the “Mean [5-aza]” value [1, 8] was 111.0 (N = 5) ng/mL and the “% of Time 0” value [1, 9] was 72.4%. The “Mean [5-aza]” value [1, 9] was 110.0 (N = 5) ng/mL, the “% of Time 0” value [1, 10] was 57.2% and the “Mean [5-aza]” value [1, 10] was 87.0 (N = 5) ng/mL. For the same compound, the “Mean [5-aza]” value ([1]; [5-aza] 200 ng/mL, Room Temp, 0 mins) was 152.0 (N = 5) ng/mL, the “% of Time 0” value [1, 11] was 73.4% and the “Mean [5-aza]” value [1, 11] was 111.6 (N = 5) ng/mL. The “% of Time 0” value [1, 12] was 57.8%, the “Mean [5-aza]” value [1, 12] was 87.9 (N = 5) ng/mL and the “% of Time 0” value [1, 13] was 37.3%. The “Mean [5-aza]” value [1, 13] was 56.7 (N = 5) ng/mL, the “% of Time 0” value [1, 14] was 21.7% and the “Mean [5-aza]” value [1, 14] was 33.0 (N = 5) ng/mL. For the same compound, the “time stable as acetonitrile residue” value ([2]; about minus 70° C., stable = within ±20% of freshly prepared sample) was “at least 14 months”, the “% of Time 0” value ([2]; [5-aza] 30 ng/mL, 4 Weeks) was 90.0% and the “Mean [5-aza]” value ([2]; [5-aza] 30 ng/mL, 4 Weeks) was 27.1 (N = 6) ng/mL. For the same compound, the “% of Time 0” value ([2]; [5-aza] 30 ng/mL, 6 Months) was 105.3%, the “Mean [5-aza]” value ([2]; [5-aza] 30 ng/mL, 6 Months) was 31.7 (N = 6) ng/mL and the “% of Time 0” value ([2]; [5-aza] 30 ng/mL, 7 Days) was 93.7%. The “Mean [5-aza]” value ([2]; [5-aza] 30 ng/mL, 7 Days) was 28.2 (N = 6) ng/mL, the “% of Time 0” value ([2]; [5-aza] 30 ng/mL, 14 Days) was 97.3% and the “Mean [5-aza]” value ([2]; [5-aza] 30 ng/mL, 14 Days) was 29.3 (N = 6) ng/mL. The “% of Time 0” value ([2]; [5-aza] 30 ng/mL, 14 Months) was 111.0%, the “Mean [5-aza]” value ([2]; [5-aza] 30 ng/mL, 14 Months) was 33.4 (N = 5) ng/mL and the “% of Time 0” value ([2]; [5-aza] 30 ng/mL, 15 Weeks) was 100.7%. For the same compound, the “Mean [5-aza]” value ([2]; [5-aza] 30 ng/mL, 15 Weeks) was 30.3 (N = 6) ng/mL, the “Mean [5-aza]” value ([2]; [5-aza] 30 ng/mL, Time 0) was 30.1 (N = 6) ng/mL and the “% of Time 0” value ([2]; [5-aza] 400 ng/mL, 4 Weeks) was 95.6%. The “Mean [5-aza]” value ([2]; [5-aza] 400 ng/mL, 4 Weeks) was 365 (N = 5) ng/mL, the “% of Time 0” value ([2]; [5-aza] 400 ng/mL, 6 Months) was 97.4% and the “Mean [5-aza]” value ([2]; [5-aza] 400 ng/mL, 6 Months) was 372 (N = 5) ng/mL. For the same compound, the “% of Time 0” value ([2]; [5-aza] 400 ng/mL, 7 Days) was 98.7%, the “Mean [5-aza]” value ([2]; [5-aza] 400 ng/mL, 7 Days) was 377 (N = 6) ng/mL and the “% of Time 0” value ([2]; [5-aza] 400 ng/mL, 14 Days) was 91.6%. The “Mean [5-aza]” value ([2]; [5-aza] 400 ng/mL, 14 Days) was 350 (N = 6) ng/mL, the “% of Time 0” value ([2]; [5-aza] 400 ng/mL, 14 Months) was 115.9% and the “Mean [5-aza]” value ([2]; [5-aza] 400 ng/mL, 14 Months) was 443 (N = 5) ng/mL. For the same compound, the “% of Time 0” value ([2]; [5-aza] 400 ng/mL, 15 Weeks) was 103.9%, the “Mean [5-aza]” value ([2]; [5-aza] 400 ng/mL, 15 Weeks) was 397 (N = 6) ng/mL and the “Mean [5-aza]” value ([2]; [5-aza] 400 ng/mL, Time 0) was 382 (N = 6) ng/mL. For the same compound, the “measured 5-azacytidine concentration, deviation from initial concentration in the plasma sample” value ([2]; samples prepared according to the methods, LC/MS/MS) was at most 20%, the “time stable in acetonitrile layer over plasma layer” value ([3]; about minus 70° C.) was “at least 4 days” and the “time stable in acetonitrile layer over plasma layer (acetonitrile/plasma solution)” value ([3]; about room temperature, stable = within ±20% of freshly prepared sample) was “at least 3 hours”. The “% of Fresh Prep” value ([3]; [5-aza] 30 ng/mL, 3 hours RT) was 98.7%, the “Mean [5-aza]” value ([3]; [5-aza] 30 ng/mL, 3 hours RT) was 29.8 (N = 6) ng/mL and the “% of Fresh Prep” value [3, 15] was 103.3%. For the same compound, the “Mean [5-aza]” value [3, 15] was 31.2 (N = 6) ng/mL, the “Mean [5-aza]” value ([3]; [5-aza] 30 ng/mL, Fresh prep.) was 30.2 (N = 6) ng/mL and the “% of Fresh Prep” value ([3]; [5-aza] 400 ng/mL, 3 hours RT) was 89.4%. For the same compound, the “Mean [5-aza]” value ([3]; [5-aza] 400 ng/mL, 3 hours RT) was 371 (N = 6) ng/mL, the “% of Fresh Prep” value [3, 16] was 88.4% and the “Mean [5-aza]” value [3, 16] was 367 (N = 6) ng/mL. For the same compound, the “Mean [5-aza]” value ([3]; [5-aza] 400 ng/mL, Fresh prep.) was 415 (N = 6) ng/mL and the “time stable in acetonitrile/plasma solution” value ([3]; minus 70° C. with one freeze-thaw cycle of 5.5 hours at room temperature, stable = within ±20% of freshly prepared sample) was “at least 4 days”.
